{"source": "patent US20190381171A1", "about": "“CO-USE OF ANTI-BCMA ANTIBODY AND ANTIBODY-COUPLED T CELL RECEPTOR (ACTR) IN CANCER THERAPY AND B CELL DISORDERS” (UNUM THERAPEUTICS INC., priority 2017, published 2019)", "key": {"RPMI-8226 target cells": {"tested_on": "RPMI-8226 target cells", "experiment": "ACTR T-cell proliferation (live CD3+ T cell count, flow cytometry, 7 days)", "format": "cell-based, human", "conditions": "ACTR variant SEQ ID NO: 1, E:T 1:1, hSG16.17 SEA 1 μg/mL, absence or presence of lenalidomide 1 μM, 7 day", "method": "(§1) T-cells expressing ACTR variant SEQ ID NO: 1 (effector; E) and target cells (target; T) were incubated at a 1:1, effector-to-target ratio (30,000 T cells; 30,000 target cells) with increasing concentrations of humanized afucosylated (SEA) BCMA antibody in a 200-μL reaction volume in RPMI 1640 media supplemented with 10% fetal bovine serum and 25 U/mL IL2. Reactions were incubated in a CO2 (5%) incubator at 37 degrees C. for 7 days. The number of live CD3+ T-cells were determined at day 1 and day 7 and compared to the input number of T-cells (dotted line). Briefly, at day 1 and day 7, cells were washed twice in staining buffer before being stained with a Live/Dead eFluor-780 dye for 30 min at 4 degrees C. […] After staining, cells were washed twice again with staining buffer and staining was subsequently detected via flow cytometry. […]\nMock or ACTR T cells (effector; E) and target cells (target; T) were incubated at a 1:1, effector-to-target cell ratio in the presence and absence of the anti-BCMA antibody, hSG16.17 SEA (1 μg/mL). […] The total CD3+ T cell count was determined by flow cytometry after a 7 day incubation in a CO2 (5%) incubator. […] After staining, cells were washed twice with staining buffer and detected via flow cytometry. […]"}, "NCI-H929 target cells": {"tested_on": "NCI-H929 target cells", "experiment": "ACTR T-cell proliferation (live CD3+ T cell count, flow cytometry, 7 days)", "format": "cell-based, human", "conditions": "ACTR variant SEQ ID NO: 1, E:T 1:1, hSG16.17 SEA 1 μg/mL, absence or presence of lenalidomide 1 μM, 7 day", "method": "as §1\nMock T cells or ACTR T cells (effector; E) and target cells (target; T) were incubated at a 1:1, effector-to-target cell ratio (30,000 target cells) with increasing concentration of humanized afucosylated anti-BCMA antibody (hSG16.17SEA) in a 200-μL reaction volume in RPMI 1640 media supplemented with 10% fetal bovine serum. […] The counts of live CD3+ T cells were determined at day 7. […] After staining, cells were washed twice again with staining buffer and staining was subsequently detected via flow cytometry. […]"}}, "data": [{"smiles": "Nc1cccc2c1CN(C1CCC(=O)NC1=O)C2=O", "note": "(centres unmarked) [Lenalidomide, lenalidomide, reference compound]", "values": [{"measurement": "CD3+ T cell count", "setting": "RPMI-8226 target cells", "value": "further enhanced the proliferation"}, {"measurement": "CD3+ T cell count", "setting": "NCI-H929 target cells", "value": "further enhanced the proliferation"}]}]}
